# Source: ChEMBL document CHEMBL1201862, “PubChem BioAssay data set” (2004)
# Calls of active or inactive are those of the source.
# Experiments:
# Genome polyprotein = Genome polyprotein (dengue virus type 2, UniProt P29990); assay: flavivirus cap methylation enzyme inhibition – biochemical, confirmation dose response, primary screen (AID 588689); type: functional
# Cytochrome P450 2C19 = Cytochrome P450 2C19 (Homo sapiens, UniProt P33261); assay: Cytochrome panel assay with activity outcomes. Panel member name: p450-cyp2c19 Compounds with AC50 equal or less than 10 uM are considered active; type: functional; settings: read-out: AC50
# Cytochrome P450 2C9 = Cytochrome P450 2C9 (Homo sapiens, UniProt P11712)
# Cytochrome P450 2D6 = Cytochrome P450 2D6 (Homo sapiens, UniProt P10635);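 also: CYP2D6 member of a cytochrome P450 panel assay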
# cells = type: functional
# [1] = target: T1, High affinity choline transporter 1 (Homo sapiens, UniProt Q9GZV3); assay: human choline transporter blockers, potency – cell-based, 5-point CRC, membrane potential dye, dose response (AID 504840); type: functional
# T1 sequence (Q9GZV3 whole entry): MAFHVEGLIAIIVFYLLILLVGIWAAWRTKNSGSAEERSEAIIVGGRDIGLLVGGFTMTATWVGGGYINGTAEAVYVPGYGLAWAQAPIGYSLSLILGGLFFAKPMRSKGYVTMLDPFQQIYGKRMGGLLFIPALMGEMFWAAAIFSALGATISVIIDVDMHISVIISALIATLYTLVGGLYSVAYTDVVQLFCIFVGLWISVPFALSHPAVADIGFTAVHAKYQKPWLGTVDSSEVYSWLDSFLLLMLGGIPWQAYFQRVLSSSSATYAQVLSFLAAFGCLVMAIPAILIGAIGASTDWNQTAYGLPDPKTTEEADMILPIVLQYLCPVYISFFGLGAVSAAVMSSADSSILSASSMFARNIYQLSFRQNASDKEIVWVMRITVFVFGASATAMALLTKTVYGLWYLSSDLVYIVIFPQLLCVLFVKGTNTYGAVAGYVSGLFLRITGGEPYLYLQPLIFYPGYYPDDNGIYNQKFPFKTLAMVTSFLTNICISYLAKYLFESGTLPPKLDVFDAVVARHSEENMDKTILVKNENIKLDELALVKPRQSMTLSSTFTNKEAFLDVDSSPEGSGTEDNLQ
# [2] = non-specific 3'UTR reporter inhibition in Clone20-Shn3RL – cell-based, Renilla luciferase, cherry-picked, counter-screen for Shn3 inhibitor project, dose response (AID 624133); type: functional
# [3] = reduction of Shn3 3'UTR-driven luciferase in osteoblasts – cell-based, Clone20 osteoblasts, firefly luciferase, cherry-picked, dose response (AID 624132); type: functional;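 also: firefly luciferase luminescence from reporter carrying the Shn3 3'UTR in osteoblasts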
# [4] = NIH3T3 cell viability loss – ATP luminescence, mouse fibroblasts, counter-screen, dose response (AID 2010); type: functional, cell-based;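 also: cells exposed to compound for about 90 hours before reading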
# [5] = Trypanosoma cruzi growth suppression in host cells – NIH3T3 host cells, beta-gal luminescence, confirmation (AID 2044); type: functional, cell-based;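 also: intracellular parasites grown in NIH/3T3 mouse fibroblasts as host cells; luminescent beta-galactosidase reporter signal from transgenic T. cruzi replicating inside host cells; inhibitors lower the luminescence signal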
# [6] = loss of viability in HepG2 cells – cell-based, CellTiter-Glo, cherry-picked, cytotoxicity control for Shn3 inhibitor project, dose response (AID 624134); type: functional
# [7] = target: Luciferin 4-monooxygenase (Photinus pyralis, UniProt P08659); assay: inhibition of purified Photinus pyralis luciferase – biochemical, luminescence, dose response (AID 1891)
# [8] = Luminescence Cell-Based Dose Confirmation HTS to Identify Inhibitors of Platelet Dense Granule Release. [Related pubchem assays: 1663 (Primary HTS), 1678 (Summary of Project)]; type: functional
# Cytochrome P450 3A4 = Cytochrome P450 3A4 (Homo sapiens, UniProt P08684);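 also: CYP3A4 tested as one member of a cytochrome P450 panel screen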
# Cytochrome P450 1A2 = target: T2, Cytochrome P450 1A2 (Homo sapiens, UniProt P05177);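 also: PubChem cytochrome P450 panel assay, CYP1A2 panel member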
# T2 sequence (P05177 whole entry): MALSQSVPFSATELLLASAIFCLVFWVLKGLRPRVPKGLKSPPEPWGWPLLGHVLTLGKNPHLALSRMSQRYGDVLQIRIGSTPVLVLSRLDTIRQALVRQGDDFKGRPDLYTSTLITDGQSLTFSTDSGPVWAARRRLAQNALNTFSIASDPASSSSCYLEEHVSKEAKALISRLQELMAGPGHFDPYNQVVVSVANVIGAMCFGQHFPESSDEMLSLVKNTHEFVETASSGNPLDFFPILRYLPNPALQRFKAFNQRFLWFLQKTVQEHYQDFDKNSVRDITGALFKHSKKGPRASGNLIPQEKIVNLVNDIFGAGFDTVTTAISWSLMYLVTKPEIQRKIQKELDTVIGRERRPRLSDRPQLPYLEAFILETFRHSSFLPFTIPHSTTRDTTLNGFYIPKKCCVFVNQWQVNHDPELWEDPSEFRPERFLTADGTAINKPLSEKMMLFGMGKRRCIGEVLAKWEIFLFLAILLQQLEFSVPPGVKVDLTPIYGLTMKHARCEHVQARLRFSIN
# [9] = target: T3, Polyadenylate-binding protein 1 (Homo sapiens, UniProt P11940); assay: MLLE binding blockers, Cy5 peptide tracer – biochemical, fluorescence polarization, Cy5-PAM2 peptide, secondary, miRNA deadenylation inhibitor project, dose response (AID 602260); type: functional; settings: read-out: IC50_Mean
# [10] = target: T3, Polyadenylate-binding protein 1; assay: MLLE domain peptide-binding blockers, IC50 – biochemical, fluorescence polarization, FITC-PAM2 peptide, dose response (AID 602259); type: functional; settings: read-out: IC50_Mean
# [11] = Luminescence Cell-Based Dose Response HTS to Identify Inhibitors of 5'UTR Stem-Loop Driven Prion Protein mRNA Translation in H4 Neuroglioblastoma Cells. [Related pubchem assays: 1827 (Project Summary), 1813 (Primary HTS)]; type: functional
# Protein RecA = target: T4, Protein RecA (Mycobacterium tuberculosis, UniProt P9WHJ3); assay: Fluorescence Cell-Free Homogeneous Dose Retest to Identify Inhibitors of RecA-Intein Splicing Activity. [Related pubchem assays (depositor defined):AID2097, AID2223, AID489010, AID492950]; type: functional
# T4 sequence (P9WHJ3 whole entry): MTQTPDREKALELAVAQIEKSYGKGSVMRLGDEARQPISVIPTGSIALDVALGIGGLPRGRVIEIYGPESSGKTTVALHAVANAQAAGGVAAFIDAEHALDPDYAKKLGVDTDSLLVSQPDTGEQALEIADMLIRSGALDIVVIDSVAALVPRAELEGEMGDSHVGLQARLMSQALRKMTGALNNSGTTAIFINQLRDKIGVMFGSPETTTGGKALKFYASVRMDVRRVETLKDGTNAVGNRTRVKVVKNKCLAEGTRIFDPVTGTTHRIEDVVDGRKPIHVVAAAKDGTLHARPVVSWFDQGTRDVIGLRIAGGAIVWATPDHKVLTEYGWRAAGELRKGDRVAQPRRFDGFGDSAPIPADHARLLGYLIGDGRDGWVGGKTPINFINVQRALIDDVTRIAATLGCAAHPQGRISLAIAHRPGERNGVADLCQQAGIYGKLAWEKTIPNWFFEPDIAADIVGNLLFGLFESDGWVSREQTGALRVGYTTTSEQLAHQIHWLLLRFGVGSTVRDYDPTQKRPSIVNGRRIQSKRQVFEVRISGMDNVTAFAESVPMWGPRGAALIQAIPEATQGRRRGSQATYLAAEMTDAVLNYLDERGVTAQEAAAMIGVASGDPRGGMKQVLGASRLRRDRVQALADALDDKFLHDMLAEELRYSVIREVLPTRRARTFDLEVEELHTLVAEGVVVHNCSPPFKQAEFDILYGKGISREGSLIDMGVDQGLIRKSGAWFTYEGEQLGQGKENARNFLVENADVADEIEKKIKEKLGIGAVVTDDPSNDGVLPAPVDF
# [12] = target: T5, Replicative DNA helicase DnaB (Mycobacterium tuberculosis, UniProt P9WMR3); assay: DnaB intein splicing inhibitors, dose response, biochemical, cell-free fluorescence (AID 449749); type: functional
# T5 sequence (P9WMR3 whole entry): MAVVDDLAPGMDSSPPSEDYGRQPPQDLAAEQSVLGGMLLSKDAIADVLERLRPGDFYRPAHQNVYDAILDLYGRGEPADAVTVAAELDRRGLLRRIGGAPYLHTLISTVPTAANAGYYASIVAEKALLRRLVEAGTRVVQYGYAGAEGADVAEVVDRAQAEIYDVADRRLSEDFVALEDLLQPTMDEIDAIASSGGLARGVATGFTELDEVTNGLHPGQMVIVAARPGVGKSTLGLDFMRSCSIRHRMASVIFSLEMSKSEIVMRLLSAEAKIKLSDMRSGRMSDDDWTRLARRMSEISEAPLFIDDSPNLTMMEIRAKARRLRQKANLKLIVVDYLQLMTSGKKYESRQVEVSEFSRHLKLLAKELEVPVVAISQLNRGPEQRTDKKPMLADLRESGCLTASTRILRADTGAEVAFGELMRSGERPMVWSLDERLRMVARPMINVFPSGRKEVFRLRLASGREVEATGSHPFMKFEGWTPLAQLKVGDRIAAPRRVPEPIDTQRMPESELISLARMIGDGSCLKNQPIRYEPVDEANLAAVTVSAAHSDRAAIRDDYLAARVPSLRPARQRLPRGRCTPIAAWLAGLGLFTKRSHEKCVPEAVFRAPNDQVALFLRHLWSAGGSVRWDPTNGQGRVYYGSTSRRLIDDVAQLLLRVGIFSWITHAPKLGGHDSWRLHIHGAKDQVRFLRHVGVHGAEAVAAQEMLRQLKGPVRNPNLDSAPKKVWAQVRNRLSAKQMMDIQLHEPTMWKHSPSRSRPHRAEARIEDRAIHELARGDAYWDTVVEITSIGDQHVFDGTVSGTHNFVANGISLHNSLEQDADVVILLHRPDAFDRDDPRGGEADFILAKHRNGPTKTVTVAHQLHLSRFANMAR
# Chain of Genome polyprotein (P29990 2492-3391 limits assumed): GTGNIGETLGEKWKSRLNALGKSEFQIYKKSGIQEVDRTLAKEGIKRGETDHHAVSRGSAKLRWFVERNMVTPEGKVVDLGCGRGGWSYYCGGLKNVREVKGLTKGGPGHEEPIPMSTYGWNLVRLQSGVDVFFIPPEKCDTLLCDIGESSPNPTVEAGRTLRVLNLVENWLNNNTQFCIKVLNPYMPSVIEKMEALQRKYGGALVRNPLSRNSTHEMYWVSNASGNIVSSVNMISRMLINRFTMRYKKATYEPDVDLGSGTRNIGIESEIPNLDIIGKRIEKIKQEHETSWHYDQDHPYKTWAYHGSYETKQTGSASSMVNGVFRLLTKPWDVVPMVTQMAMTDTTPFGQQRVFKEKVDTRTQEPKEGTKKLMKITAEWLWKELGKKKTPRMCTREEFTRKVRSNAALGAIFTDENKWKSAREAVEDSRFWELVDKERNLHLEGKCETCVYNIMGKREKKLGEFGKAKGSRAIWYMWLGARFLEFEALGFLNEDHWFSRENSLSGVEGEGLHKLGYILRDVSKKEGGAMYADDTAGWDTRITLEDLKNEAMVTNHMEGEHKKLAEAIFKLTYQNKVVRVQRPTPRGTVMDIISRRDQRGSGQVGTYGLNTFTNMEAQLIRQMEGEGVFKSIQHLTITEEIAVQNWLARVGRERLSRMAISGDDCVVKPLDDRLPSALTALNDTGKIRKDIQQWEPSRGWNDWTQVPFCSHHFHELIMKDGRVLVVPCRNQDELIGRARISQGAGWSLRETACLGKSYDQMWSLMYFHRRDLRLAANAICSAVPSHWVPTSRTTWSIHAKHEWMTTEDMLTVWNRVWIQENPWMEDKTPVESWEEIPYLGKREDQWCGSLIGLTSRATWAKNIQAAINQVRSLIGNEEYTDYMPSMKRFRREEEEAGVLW
# Chain of Cytochrome P450 2D6 (P10635 whole entry): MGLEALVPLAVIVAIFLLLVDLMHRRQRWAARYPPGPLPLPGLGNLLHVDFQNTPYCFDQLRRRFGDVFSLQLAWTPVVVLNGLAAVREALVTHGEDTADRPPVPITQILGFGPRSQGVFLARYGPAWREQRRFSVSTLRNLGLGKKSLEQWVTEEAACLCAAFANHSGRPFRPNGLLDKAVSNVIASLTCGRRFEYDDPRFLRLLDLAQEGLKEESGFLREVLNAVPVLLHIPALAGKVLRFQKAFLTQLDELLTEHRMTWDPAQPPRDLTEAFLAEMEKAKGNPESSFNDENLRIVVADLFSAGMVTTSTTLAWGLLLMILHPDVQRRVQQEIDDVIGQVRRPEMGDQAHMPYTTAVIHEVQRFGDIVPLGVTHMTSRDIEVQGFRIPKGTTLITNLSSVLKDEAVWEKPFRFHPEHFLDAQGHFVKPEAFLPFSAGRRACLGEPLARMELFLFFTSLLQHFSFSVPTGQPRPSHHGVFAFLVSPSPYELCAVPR
# Chain of Cytochrome P450 3A4 (P08684 whole entry): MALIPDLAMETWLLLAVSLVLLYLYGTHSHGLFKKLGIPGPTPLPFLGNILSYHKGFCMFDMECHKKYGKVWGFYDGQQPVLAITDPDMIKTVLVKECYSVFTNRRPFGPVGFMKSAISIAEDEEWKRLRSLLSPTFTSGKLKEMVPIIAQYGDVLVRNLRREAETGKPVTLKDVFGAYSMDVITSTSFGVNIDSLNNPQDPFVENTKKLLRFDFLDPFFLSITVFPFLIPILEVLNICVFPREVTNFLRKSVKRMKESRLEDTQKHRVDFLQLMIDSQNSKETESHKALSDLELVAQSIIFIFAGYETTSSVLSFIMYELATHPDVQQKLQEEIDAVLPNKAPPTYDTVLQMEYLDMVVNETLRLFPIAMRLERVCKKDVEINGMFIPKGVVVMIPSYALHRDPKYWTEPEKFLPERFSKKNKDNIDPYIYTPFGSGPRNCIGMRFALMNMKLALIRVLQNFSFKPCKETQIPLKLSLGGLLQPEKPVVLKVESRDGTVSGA
# Chain of Cytochrome P450 2C9 (P11712 whole entry): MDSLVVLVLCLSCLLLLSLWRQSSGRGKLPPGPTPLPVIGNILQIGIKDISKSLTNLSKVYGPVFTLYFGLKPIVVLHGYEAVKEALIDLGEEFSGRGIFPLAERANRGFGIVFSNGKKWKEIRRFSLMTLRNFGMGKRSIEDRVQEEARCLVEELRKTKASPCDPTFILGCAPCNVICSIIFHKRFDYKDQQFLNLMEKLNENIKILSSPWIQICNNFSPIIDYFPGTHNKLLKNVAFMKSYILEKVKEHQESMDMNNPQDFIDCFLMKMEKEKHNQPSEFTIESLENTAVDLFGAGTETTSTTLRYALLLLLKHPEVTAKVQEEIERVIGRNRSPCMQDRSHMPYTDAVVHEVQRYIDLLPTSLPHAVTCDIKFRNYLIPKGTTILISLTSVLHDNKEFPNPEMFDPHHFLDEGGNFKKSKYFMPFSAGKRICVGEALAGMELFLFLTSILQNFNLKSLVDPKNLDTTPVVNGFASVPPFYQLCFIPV
# Chain of Cytochrome P450 2C19 (P33261 whole entry): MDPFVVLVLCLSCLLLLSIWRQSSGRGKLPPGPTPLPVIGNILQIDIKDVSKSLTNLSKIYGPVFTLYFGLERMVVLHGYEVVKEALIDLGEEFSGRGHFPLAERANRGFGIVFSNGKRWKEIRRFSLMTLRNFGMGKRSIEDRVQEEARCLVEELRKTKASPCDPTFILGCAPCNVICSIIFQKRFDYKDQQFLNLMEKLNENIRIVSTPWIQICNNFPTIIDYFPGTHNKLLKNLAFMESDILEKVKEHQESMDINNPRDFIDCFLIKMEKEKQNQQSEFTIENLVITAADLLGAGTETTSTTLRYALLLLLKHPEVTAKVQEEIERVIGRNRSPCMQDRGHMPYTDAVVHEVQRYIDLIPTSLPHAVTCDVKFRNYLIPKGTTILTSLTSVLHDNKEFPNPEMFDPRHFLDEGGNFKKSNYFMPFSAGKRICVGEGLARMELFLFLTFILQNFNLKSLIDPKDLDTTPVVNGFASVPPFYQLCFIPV
# T3 sequence (P11940 whole entry, the tested form may be a part): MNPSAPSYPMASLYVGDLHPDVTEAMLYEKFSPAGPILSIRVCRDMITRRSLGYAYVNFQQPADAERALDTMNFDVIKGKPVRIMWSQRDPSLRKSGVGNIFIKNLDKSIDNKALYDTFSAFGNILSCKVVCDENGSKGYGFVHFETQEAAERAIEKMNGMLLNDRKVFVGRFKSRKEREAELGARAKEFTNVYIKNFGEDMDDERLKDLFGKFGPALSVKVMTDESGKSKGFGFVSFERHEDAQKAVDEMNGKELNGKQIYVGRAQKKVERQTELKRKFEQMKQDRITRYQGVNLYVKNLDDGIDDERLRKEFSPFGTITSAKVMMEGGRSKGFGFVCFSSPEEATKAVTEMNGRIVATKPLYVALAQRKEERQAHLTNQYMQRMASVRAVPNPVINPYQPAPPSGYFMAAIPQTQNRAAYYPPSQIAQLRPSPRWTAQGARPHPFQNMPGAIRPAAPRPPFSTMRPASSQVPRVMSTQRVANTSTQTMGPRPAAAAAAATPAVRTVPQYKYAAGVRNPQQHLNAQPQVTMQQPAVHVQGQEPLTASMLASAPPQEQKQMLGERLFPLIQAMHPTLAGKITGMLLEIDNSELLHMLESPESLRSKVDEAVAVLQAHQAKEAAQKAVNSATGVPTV
# Chain of Luciferin 4-monooxygenase (P08659 whole entry): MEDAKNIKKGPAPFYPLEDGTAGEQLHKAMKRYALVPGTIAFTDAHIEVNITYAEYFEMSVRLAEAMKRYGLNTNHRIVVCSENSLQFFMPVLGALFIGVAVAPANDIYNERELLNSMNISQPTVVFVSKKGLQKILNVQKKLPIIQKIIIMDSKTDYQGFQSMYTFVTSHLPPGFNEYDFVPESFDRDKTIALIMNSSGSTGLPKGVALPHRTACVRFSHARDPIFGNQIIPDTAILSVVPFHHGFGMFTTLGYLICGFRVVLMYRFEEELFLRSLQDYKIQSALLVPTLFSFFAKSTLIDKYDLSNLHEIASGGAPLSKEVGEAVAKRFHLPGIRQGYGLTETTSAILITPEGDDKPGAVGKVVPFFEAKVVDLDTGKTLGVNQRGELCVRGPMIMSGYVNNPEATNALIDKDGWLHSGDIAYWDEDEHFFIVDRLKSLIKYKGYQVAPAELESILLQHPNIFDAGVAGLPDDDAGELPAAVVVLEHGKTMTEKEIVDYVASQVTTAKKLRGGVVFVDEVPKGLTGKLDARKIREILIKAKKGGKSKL
smiles,measurement,setting,value
O=C1OC(c2ccccc2)C(C(=O)c2ccc(Cl)cc2)=C1O (configuration not stated),IC50,Genome polyprotein,83.4 µM (active)
O=C(OC[C@@H](O)CO)c1ccccc1Nc1ccnc2cc(Cl)ccc12,AC50,Cytochrome P450 2C19,3.98 µM (inconclusive)
same,AC50,Cytochrome P450 2C9,15.8 µM (inconclusive)
same,AC50,Cytochrome P450 2D6,12.6 µM (inconclusive)
Cc1ccc(OC(=O)CCS(=O)(=O)c2ccc(C)cc2)cc1,IC50,cells,< 0.1 µM (active)
CCCCCn1c(=O)c(C(=O)OCC)c(Cl)c2ccccc21,IC50,[1],19.1 µM (active)
Clc1ccc(C[n+]2cc(-c3ccccc3)n3c2CCCCC3)c(Cl)c1,AC50,[2],1.21 µM (active)
same,AC50,[3],1.2 µM (active)
same,EC50,[4],15.3 µM (active)
same,EC50,[5],0.273 µM (active)
same,AC50,[6],> 70 µM (inactive)
Cc1cc(C)n2nc(N)c(N=Nc3ccccc3)c2n1,EC50,[7],> 112 µM (not active)
same,IC50,cells,5.78 µM (active)
same,EC50,[8],> 112 µM (not active)
Cc1c(C(=O)Nc2ccc(S(=O)(=O)NCC3CCCO3)cc2)cccc1[N+](=O)[O-] (configuration not stated),IC50,[1],14.5 µM (active)
CC1=NN(C(=O)c2ccccc2F)C(O)(c2ccc(Cl)cc2)C1 (configuration not stated),IC50,cells,> 50 µM (active)
Nc1nonc1C(=O)NCCNCc1cc(Br)ccc1OCc1ccc(F)cc1,AC50,[2],8.32 µM (active)
same,AC50,[3],3.74 µM (active)
same,AC50,[6],38.6 µM (active)
N#Cc1c(NC(=O)C(F)(F)F)sc2c3c(=O)c4ccccc4c(=O)c=3oc3ccccc3c12,AC50,Cytochrome P450 3A4,3.98 µM (inconclusive)
same,AC50,Cytochrome P450 2D6,0.794 µM (inconclusive)
CO[C@H]1C=C2CCN(C)[C@@H]2[C@@H]2c3cc4c(cc3C(=O)O[C@H]21)OCO4,AC50,Cytochrome P450 1A2,12.6 µM (inconclusive)
same,AC50,Cytochrome P450 2D6,10 µM (inconclusive)
COC(=O)C1=C(C(=O)OC)C(c2ccccc2O)c2sc(O)nc2S1 (configuration not stated),IC50,Genome polyprotein,93.2 µM (active)
same,IC50,[9],> 66 µM (inactive)
same,IC50,[10],> 66 µM (inactive)
CC#CC(=O)N1CCC(CCc2ccccc2)(C(=O)OCC)CC1,EC50,[11],> 120 µM (not active)
CC(C)n1c(/C=C/[C@H](O)C[C@H](O)CC(=O)O)c(-c2ccc(F)cc2)c2ccccc21,AC50,[2],5.95 µM (active)
same,AC50,[3],1.42 µM (active)
same,AC50,[6],> 70 µM (inactive)
CN(C)c1ncc2nc(CCc3ccccc3)c(=O)n(C3CC3)c2n1,AC50,Cytochrome P450 3A4,10 µM (inconclusive)
same,AC50,Cytochrome P450 2D6,10 µM (inconclusive)
C#CCOc1c(Cl)cc(/C=C2/C(=O)ON=C2C)cc1OCC,IC50,Genome polyprotein,> 100 µM (active)
O=C(COc1ccccc1)Nc1nnc(-c2ccc(Cl)cc2)o1,IC50,cells,34.6 µM (active)
CCCCCC1=C2CNC(C)(C(=O)OC)C=C2C(C)C1=O (configuration not stated),AC50,Cytochrome P450 1A2,25.1 µM (inconclusive)
same,AC50,Cytochrome P450 2C9,31.6 µM (inconclusive)
same,AC50,Cytochrome P450 2D6,25.1 µM (inconclusive)
O=C(C/C=N\OCc1ccc([N+](=O)[O-])cc1)Nc1ccc(F)cc1F,IC50,cells,33 µM (active)
O=C1NC(=O)C(=Cc2cc3c(cc2[N+](=O)[O-])OCO3)C(=O)N1,EC50,Protein RecA,> 380 µM (inconclusive)
same,IC50,Genome polyprotein,21.4 µM (active)
same,AC50,[12],> 380 µM (inactive)
CCC(=O)c1ccc(OCc2ccc(C(=O)OC)cc2)cc1,IC50,cells,38.8 µM (active)
CC1CCC(NC(=O)c2ccc(NC(=O)CC3SC(N4CCCC4)=NC3=O)cc2)CC1 (configuration not stated),IC50,[1],14.5 µM (active)
O=C(Nc1ccc(OC(F)(F)F)cc1)c1n[nH]c(Cn2cncn2)n1,AC50,Cytochrome P450 2C19,2.51 µM (inconclusive)
same,AC50,Cytochrome P450 2C9,11.2 µM (inconclusive)
same,AC50,Cytochrome P450 3A4,15.8 µM (inconclusive)
same,AC50,Cytochrome P450 2D6,20 µM (inconclusive)
